Assay results reported in PMC8362126, “Proteolysis Targeting Chimera (PROTAC) for Macrophage Migration Inhibitory Factor (MIF) Has Anti‐Proliferative Activity in Lung Cancer Cells” (Angewandte Chemie (International Ed. in English), 2021).
Values joined by “and” are separate entries in the source; they are usually repeats but may differ in a detail not shown here. Equal values may be shown once. “Also recorded” adds a separate entry of the source.

Columns and labels:
MIF [1] = molecular target: T1, MIF (Homo sapiens, UniProt P14174); test: MIF degradation in A549 cells, western-blot; type: cell-based; parameters: endogenous in cells; host or cells: A549 (ATCC CCL-185)
T1 sequence (P14174 2-115 limits assumed): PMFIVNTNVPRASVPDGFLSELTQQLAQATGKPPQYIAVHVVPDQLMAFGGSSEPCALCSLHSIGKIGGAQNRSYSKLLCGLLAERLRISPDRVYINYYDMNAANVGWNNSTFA
Procedure: The concentration dependence of PROTAC MD13‐mediated induction of MIF degradation in A549 cells was investigated using western‐blot. […] The MIF levels were normalized to the vehicle treated control and plotted to the respective MD13 concentrations. This provided a DC50 of around 100 nM and a maximal degradation of around 90–95 % at concentrations higher than 1 μM (Figure 3 B). The DC50 of MD13 measured by ELISA assay was about 200 nM (Figure 3 C), which is in line with the result from western‐blot. […]
Cell lysates were prepared using the protocol described above. About 10−40 μg of total protein was mixed with the 4× Laemmli Loading Dye (250 mM Tris, pH 6.8, 40% glycerol, 5% SDS, 0.005% bromophenol blue, 4% β-mercaptoethanol) and heated at 95−100 °C for 5 min and loaded onto a 12% Bis-Tris gel (Bio-Rad Laboratories, #4561084) and proteins were separated at 120V. Afterwards, proteins were transferred to polyvinylidene fluoride (PVDF) membranes, subsequently non-specific antibody binding was blocked with 5% nonfat dry milk (BIO-RAD, #1706404) in TBST buffer and incubated overnight at 4 °C with one of the following primary antibodies: anti-MIF (1:1000, ThermoFisher, #PA5-27343 ) or anti-β-actin (1:10000 Cell Signalling, #8457). The membranes were further incubated with a goat anti-rabbit HRP-conjugated secondary antibody (1:2000, DAKO, p0448) for 2 h at room temperature. Proteins were visualized with an ECLTM Prime Western Blotting System (GE Healthcare #RPN2232). The immunoblot was generated by ChemiDoc MP Imaging Systems (Bio-Rad) and analyzed by the ImageJ software. […]
As a control, the same experiment was repeated and analyzed by a western-blot assay (Figure 3B). The potency estimated from the Western blot assay was 1 µM (Figure 3C), which is consistent with the result from the ELISA assay. The “Hook effect” […]

A549 cells = test: Cell cycle analysis by flow cytometry (propidium iodide); type: cell-based, human; conditions: 48 h; for proportion of cells at the G2/M phase: control group 12 %
Procedure: The effect of MIF‐directed PROTAC MD13 on cell cycle progression was further analyzed using flow cytometry (Figure 6). A549 cells were treated with MD13 at concentrations of 1, 2, or 5 μM for the duration of 48 h before analysis using flow cytometry. […] The proportion of cells at the G2/M phase is 12 % for the control group. This percentage increases to 17 %, 19 %, and 23 % upon treatment with 1, 2, and 5 μM MD13, respectively. […]
Flow cytometry. For cell cycle analysis, A549 cells were seeded in 6 -well plates at a density of 1x10^5 per well. The next day, the cells were treated with the appropriate compound or vehicle for 48h. Subsequently, the cells were washed with PBS (3 ×) and then harvested after trypinzation. After centrifugation at 300g, the cells were incubated with a solutio n containing 20 µg/ml propidium iodide (PI) (Sigma, P4864) and 0.1% (v/v) Triton -X100 (Sigma, T8787) for 15 min at room temperature. Fluorescence was detected by a Cytoflex flow cytometer […]
(§1) (1 picture or pasted object on this page, not shown here)
(Beckman Coulter, Woerden, the Netherlands) immediately. 30,000 cells were collected for each sample. Data were analyzed using FlowJo software (Tree start, Ashland, USA). […]

MIF [2] = molecular target: T1, MIF; test: MIF degradation in A549 cells, cell lysate-based ELISA; parameters: endogenous in cells; host or cells: A549 (ATCC CCL-185); conditions: 12 h, vs DMSO, mean±SD n=3
MIF [3] = molecular target: T1, MIF; test: as above; parameters: endogenous in cells; host or cells: A549 (ATCC CCL-185); conditions: A549 cells; for degradation [%] 2 μM: vs DMSO, mean±SD n=3
Procedure: In addition, A549 cells have been successfully used for assessing activity of cereblon ligand‐based PROTACs previously.[42] Therefore, A549 is a suitable cell line for evaluating the effect of our putative MIF‐directed PROTACs MD1 to MD12 on MIF protein levels. The reduction in MIF levels were monitored in A549 cells that were treated with two different PROTAC concentrations (20 and 2 μM) for 12 h in order to estimate the dose dependency, which is important for PROTACs because of the Hook effect.[35] The MIF levels in cell lysates were analyzed using an enzyme‐linked immunosorbent assay (ELISA).
S3. ELISA screening of MIF protein level on MIF-directed PROTACs
Cell culture. Human A549 lung cancer cells (ATCCCCL-185) or HEK293 kidney […]
containing 10% (v/v) fetal bovine serum (FBS), 100 U/mL penicillin/streptomycin […]
ELISA. 7×10^5 A549 cells per well were plated in 6-well plates. The next day, cells were treated with a solution of compounds or the vehicle for 12 h. Subsequently, the culture medium was removed and cells were washed twice with cold PBS and collected after trypsin (0.5 mL) degestion. Cells were then lyzed in lysis buffer (150 mM NaCl, 50 mM Hepes pH 7.5, 5 mM EDTA, 0.1% (w/v) NP40) containing protease inhibitor cocktail (Roche, #11836153001) and resuspended vigourously. The supernatant was collected after spinning down at 16 000g at 4 °C for 30 min. The total protein concentration was determined with PierceTM BCA protein assay kit ( ThermoFisher , #23225). The protein concentration was normalized between samples. The relative MIF levels from 1µg total protein were determined by ELISA with the human MIF DuoSet ELISA kit according to the instructions of the manufacturer (R&D systems, #DY289).
Figure S1. Screening of compounds for MIF degradation activity by cell lysate -based ELISA.
A549 cells were treated with compounds at (A) 20 or (B) 2 µM for 12 h. Data was normalized […]
as §1

Structure (SMILES): O=C1CCC(N2C(=O)c3cccc(NCCCCCCCC(=O)Nc4ccc(N5Cc6ccc(O)cc6OC5=O)cc4)c3C2=O)C(=O)N1 (centres unmarked) [MD13]
- Dmax (MIF [1]; A549, A549 cells, 12 h, western-blot, concentrations higher than 1 μM, read-out: maximal degradation (Dmax)): 90 to 95%
- reduction of MIF protein levels within 3 hours (MIF [1]; A549 cells, 3 hours): about 80%
- maximal degradation (Dmax) (MIF [1]; A549 cells, 12 h, western-blot, concentrations higher than 1 μM): > 90%
- DC50 (MIF [1]; A549 cells, 12 h, western-blot, read-out: DC50): ~100 nM and < 100 nM
- recovery of the MIF levels after 48 h (MIF [1]; A549 cells, 48 h): slight recovery
- MIF degradation after 6 h (MIF [1]; A549 cells, time course, 6 h): > 92%
- time of treatment after which MIF degradation becomes visible (MIF [1]; A549 cells, MD9 at 10 μM): 3 h
- proportion of cells at the G2/M phase (A549 cells; 1 μM): 17%
- proportion of cells at the G2/M phase (A549 cells; 2 μM): 19%
- proportion of cells at the G2/M phase (A549 cells; 5 μM): 23%
- degradation [%] 0.2 μM (MIF [2]): 71% and 71±7%
- degradation [%] 2 μM (MIF [3]; 12 h): 91% and 91±5%
- DC50 (MIF [3]; 12 h, ELISA, read-out: DC50): ~200 nM
- Hook effect (MIF [3]; at 20 μM, ELISA and western-blot): Hook effect

Structure (SMILES): CN1C(=O)CCC(N2C(=O)c3cccc(NCCCCCCCC(=O)Nc4ccc(N5Cc6ccc(O)cc6OC5=O)cc4)c3C2=O)C1=O (centres unmarked) [MD15]
- effect on MIF level relative to control (MIF [1]; A549 cells, 12 hours, inactive control experiment): not able to reduce the MIF levels; also recorded: no effect on MIF protein level
- effect on the cell cycle (A549 cells; 5 μM): little or no effect
- degradation [%] 0.2 μM (MIF [2]): not capable of inducing MIF degradation and n.s.
- degradation [%] 2 μM (MIF [3]; 12 h): not capable of inducing MIF degradation and n.s.

Structure (SMILES): COc1ccc(N2Cc3ccc(O)cc3OC2=O)cc1OC [compound 3]
- rescue of MD9 mediated MIF degradation (MIF [1]; A549 cells, 2 hours pretreatment (1 100 µM, 3 50 µM, 4 50 µM, Bortezomib), then 10 µM MD9 12 h): partial to complete rescue; also recorded: rescued
- rescue of MD13 mediated MIF degradation (MIF [1]; A549 cells, co-treatment (Bortezomib) or 1 hour pretreatment (3, 4) with MD13): rescued MIF from degradation; also recorded: able to abolish the MD13 triggered degradation
